Assay results: patent US7138361B2, “Herbicidal heterocycles” (E. I. du Pont de Nemours and Company, priority 2000, dated 2006)

Columns and labels:
Assay type in all cases: in vivo
[1] = tested on: Nightshade; assay: Test C preemergence
[2] = tested on: Sunflower; assay: Test C preemergence; settings: Rate 125 g/ha; scale 0 to 100, 0 no effect, 100 complete control
[3] = tested on: Surinam grass (Brachiaria decumbens); assay: Test C preemergence
Outline: (§1)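 Herbicidal effect is a visual 0–100 score (100 = complete control) assigned versus untreated plants, 12 to 14 days after spraying in the greenhouse. Test compounds were applied in a non-phytotoxic, surfactant-containing solvent.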

[4] = tested on: bermudagrass (Cynodon dactylon); assay: Test C preemergence
Outline: as §1

[5] = tested on: cocklebur (Xanthium strumarium); assay: Test C preemergence
Outline: as §1

[6] = tested on: common ragweed (Ambrosia elatior); assay: Test C preemergence
Outline: as §1

[7] = tested on: corn (Zea mays); assay: Test C preemergence
Outline: as §1

[8] = tested on: crabgrass (Digitaria sanguinalis); assay: Test C preemergence
Outline: as §1

[9] = tested on: giant foxtail (Setaria faberii); assay: Test C preemergence
Outline: as §1

[10] = tested on: goosegrass (Eleusine indica); assay: Test C preemergence
Outline: as §1

[11] = tested on: johnsongrass (Sorghum halepense); assay: Test C preemergence
Outline: as §1

[12] = tested on: kochia (Kochia scoparia); assay: Test C preemergence
Outline: as §1

[13] = tested on: lambsquarters (Chenopodium album); assay: Test C preemergence
Outline: as §1

[14] = tested on: morningglory (Ipomoea hederacea); assay: Test C preemergence
Outline: as §1

[15] = tested on: pigweed (Amaranthus retroflexus); assay: Test C preemergence
Outline: as §1

[16] = tested on: soybean (Glycine max); assay: Test C preemergence
Outline: as §1

[17] = tested on: velvetleaf (Abutilon theophrasti); assay: Test C preemergence
Outline: as §1

[18] = tested on: woolly cupgrass (Eriochloa villosa); assay: Test C preemergence
Outline: as §1

[19] = tested on: yellow nutsedge (Cyperus esculentus); assay: Test C preemergence
Outline: as §1

[20] = tested on: barnyardgrass (Echinochloa crus-galli); assay: Test C flooded paddy test; settings: for Barnyardgrass plant response rating: Flooded Paddy, scale 0 to 100, 0 no effect, 100 complete control; for Plant response rating, Barnyardgrass: flooded paddy test, scale 0 to 100 (0 no effect, 100 complete control)
Outline: (§2)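 Ratings come from visual comparison with control plants after 12 to 14 days in the greenhouse. Each species was at the 2-leaf stage when the flooded paddy was treated. Scores run from 0, meaning no effect, to 100, meaning complete control.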

[21] = tested on: rice (Oryza saliva); assay: Test C flooded paddy test; settings: for Rice plant response rating: Flooded Paddy, scale 0 to 100, 0 no effect, 100 complete control; for Plant response rating, Rice: flooded paddy test, scale 0 to 100 (0 no effect, 100 complete control)
Outline: as §2

[22] = tested on: Sunflower; assay: Test C preemergence; settings: Rate 500 g/ha, visual evaluation after 12 to 14 days
[23] = Rate 125 g/ha, scale 0 to 100, 0 no effect, 100 complete control
[24] = preemergence, Rate 62 g/ha, scale 0 to 100
[25] = preemergence, Rate 500 g/ha, visual evaluation after 12 to 14 days
[26] = preemergence, Rate 250 g/ha, scale 0 to 100, 0 no effect, 100 complete control

In the case of CCCC(C)c1ccn(C2CCN(c3cccc(OC)c3)C2=O)n1 (stereo not drawn) [Compound 99], the “Plant response rating, Nightshade” value ([1]; Rate 62 g/ha, scale 0 to 100) is reported as 0, the “Plant response rating, Nightshade” value [1, 23] is reported as 0 and the “Plant response rating, Nightshade” value ([1]; Rate 250 g/ha, scale 0 to 100, 0 no effect, 100 complete control) is reported as 0. The “Plant response rating, Sunflower” value [2] was 0, the “Plant response rating, Surinam grass” value [3, 23] was 0 and the “Plant response rating, Surinam grass” value [3, 24] was 0. The “Plant response rating (0 to 100), Surinam grass” value [3, 25] was 90, the “Plant response rating, Surinam grass” value [3, 26] was 0 and the “Plant response rating, Bermudagrass” value [4, 23] was 90. For the same compound, the “Plant response rating, Bermudagrass” value [4, 24] was 90, the “Plant response rating (0 to 100 where 0 is no effect and 100 is complete control), Bermudagrass” value [4, 25] was 100 and the “Plant response rating, Bermudagrass” value [4, 26] was 100. For the same compound, the “Plant response rating, Cocklebur” value [5, 23] was 0, the “Plant response rating, Cocklebur” value [5, 24] was 0 and the “Plant response rating (0 to 100), Cocklebur” value [5, 25] was 0. For the same compound, the “Plant response rating, Cocklebur” value [5, 26] was 0, the “Plant response rating, Ragweed, Common” value [6, 23] was 0 and the “Plant response rating, Ragweed, Common” value [6, 24] was 0. The “Plant response rating (0 to 100), Ragweed, Common” value [6, 25] was 0, the “Plant response rating, Ragweed, Common” value [6, 26] was 0 and the “Plant response rating, Corn” value [7, 23] was 0. For the same compound, the “Plant response rating, Corn” value [7, 24] was 0, the “Plant response rating (0 to 100), Corn” value [7, 25] was 20 and the “Plant response rating, Corn” value [7, 26] was 0. For the same compound, the “Plant response rating, Crabgrass” value [8, 23] was 100, the “Plant response rating, Crabgrass” value [8, 24] was 100 and the “Plant response rating (0 to 100), Crabgrass” value [8, 25] was 100. The “Plant response rating, Crabgrass” value [8, 26] was 100, the “Plant response rating, Foxtail, Giant” value [9, 23] was 20 and the “Plant response rating, Foxtail, Giant” value [9, 24] was 10. The “Plant response rating (0 to 100), Foxtail, Giant” value [9, 25] was 70, the “Plant response rating, Foxtail, Giant” value [9, 26] was 20 and the “Plant response rating, Goosegrass” value [10, 23] was 80. For the same compound, the “Plant response rating, Goosegrass” value [10, 24] was 80, the “Plant response rating (0 to 100), Goosegrass” value [10, 25] was 100 and the “Plant response rating, Goosegrass” value [10, 26] was 90. For the same compound, the “Plant response rating, Johnsongrass” value [11, 23] was 0, the “Plant response rating, Johnsongrass” value [11, 24] was 0 and the “Plant response rating (0 to 100), Johnsongrass” value [11, 25] was 90. The “Plant response rating, Johnsongrass” value [11, 26] was 0, the “Plant response rating, Kochia” value [12, 23] was 90 and the “Plant response rating, Kochia” value [12, 24] was 80. The “Plant response rating (0 to 100), Kochia” value [12, 25] was 100, the “Plant response rating, Kochia” value [12, 26] was 90 and the “Plant response rating, Lambsquarters” value [13, 23] was 100. For the same compound, the “Plant response rating, Lambsquarters” value [13, 24] was 100, the “Plant response rating (0 to 100), Lambsquarters” value [13, 25] was 100 and the “Plant response rating, Lambsquarters” value [13, 26] was 100. For the same compound, the “Plant response rating, Morningglory” value [14, 23] was 20, the “Plant response rating, Morningglory” value [14, 24] was 0 and the “Plant response rating (0 to 100), Morningglory” value [14, 25] was 20. For the same compound, the “Plant response rating, Morningglory” value [14, 26] was 20, the “Plant response rating, Pigweed” value [15, 23] was 90 and the “Plant response rating, Pigweed” value [15, 24] was 0. The “Plant response rating (0 to 100), Pigweed” value [15, 25] was 70, the “Plant response rating, Pigweed” value [15, 26] was 20 and the “Plant response rating, Soybean” value [16, 23] was 0. The “Plant response rating, Soybean” value [16, 24] was 0, the “Plant response rating (0 to 100), Soybean” value [16, 25] was 0 and the “Plant response rating, Soybean” value [16, 26] was 0. For the same compound, the “Plant response rating, Velvetleaf” value [17, 23] was 0, the “Plant response rating, Velvetleaf” value [17, 24] was 0 and the “Plant response rating (0 to 100), Velvetleaf” value [17, 25] was 0. For the same compound, the “Plant response rating, Velvetleaf” value [17, 26] was 0, the “Plant response rating, Cupgrass, Woolly” value [18, 23] was 0 and the “Plant response rating, Cupgrass, Woolly” value [18, 24] was 0. For the same compound, the “Plant response rating (0 to 100), Cupgrass, Woolly” value [18, 25] was 100, the “Plant response rating, Cupgrass, Woolly” value [18, 26] was 10 and the “Plant response rating, Nutsedge” value [19, 23] was 0. For the same compound, the “Plant response rating, Nutsedge” value [19, 24] was 0, the “Plant response rating (0 to 100), Nutsedge” value [19, 25] was 90 and the “Plant response rating, Nutsedge” value [19, 26] was 0. The “Barnyardgrass plant response rating” value ([20]; Rate 250 g/ha) was 20, the “Barnyardgrass plant response rating” value ([20]; Rate 500 g/ha) was 60 and the “Plant response rating, Barnyardgrass” value ([20]; Rate 62 g/ha) was 0. For the same compound, the “Plant response rating, Barnyardgrass” value ([20]; Rate 125 g/ha) was 0, the “Rice plant response rating” value ([21]; Rate 250 g/ha) was 50 and the “Rice plant response rating” value ([21]; Rate 500 g/ha) was 80. The “Plant response rating, Rice” value ([21]; Rate 62 g/ha) was 0, the “Plant response rating, Rice” value ([21]; Rate 125 g/ha) was 50 and the “Plant response rating (0 to 100), Sunflower” value [22] was 0.
